Assay results from the OPERA property sets (Mansouri et al. 2018).

Settings: for log10 biotransformation half-life (days) / log10 BCF: fish

SMILES | melting point [°C] | boiling point [°C] | also measured
CCN1CCN(C(=O)N[C@@H](C(=O)N[C@@H]2C(=O)N3C(C(=O)O)=C(CSc4nnnn4C)CS[C@H]23)c2ccc(O)cc2)C(=O)C1=O | 169 | – | –
NC(=S)Nc1ccccc1 | 154 | – | –
C=CC(F)(Cl)C(F)(F)Br (centres undefined) | – | 99.5 | –
COc1cccc(OC)c1OC | 48.5 | 235 | –
C=C(Cl)CSC(=S)N(CC)CC | – | – | log10 vapour pressure (mmHg): -2.66
BrCCCCBr | -16.5 | 197 | log10 vapour pressure (mmHg): -0.211
CC1(C)CC(O)CC(C)(CN)C1 (centres undefined) | 45.5 | 265 | –
CCOP(=S)(OCC)Oc1ncn(-c2ccccc2)n1 | – | – | log10 vapour pressure (mmHg): -5.54
O=C(Cl)C(Cl)=C(Cl)Cl | – | 158 | –
CCCCc1cc2ccccc2c2ccccc12 | – | – | log10 biotransformation half-life (days): 0.29
C[C@@H](CO)NC(=O)[C@@H]1C=C2c3cccc4[nH]cc(c34)C[C@H]2N(C)C1 | 162 | – | –
COc1ccc(NC(N)=O)cc1Cl | – | – | log10 Koc (L/kg): 2
NNC(=O)Nc1ccccc1 | 128 | – | –
CCOC(=O)CI | – | 179 | log10 vapour pressure (mmHg): -0.195
Clc1cc(-c2c(Cl)c(Cl)c(Cl)c(Cl)c2Cl)c(Cl)c(Cl)c1Cl | – | – | log10 biotransformation half-life (days): 2.68
CCCCNC(=O)COC(=O)c1ccccc1 | 69.5 | – | –
COc1nc(NC(C)C)nc(NC(C)C)n1 | 91.5 | – | log10 Koc (L/kg): 2.6; log10 vapour pressure (mmHg): -5.64
CCCCc1nc(Cl)c(CO)n1Cc1ccc(-c2ccccc2-c2nnn[nH]2)cc1 | 184 | – | –
Cc1ccccc1-c1ccccc1 | -0.2 | 256 | –
C=CCCCCCCCCCCCCC | -2.8 | 268 | log10 vapour pressure (mmHg): -2.34
NC(=O)C(Br)(Br)Br | 122 | – | –
C[C@H]1[C@H](C)CC[C@]2(C(=O)O)CC[C@]3(C)C(=CC[C@@H]4[C@@]5(C)CC[C@H](O)C(C)(C)[C@@H]5CC[C@]43C)[C@H]12 | 284 | – | –
Cc1ncc(CO)c(CO)c1O.Cl | 207 | – | –
NS(=O)(=O)c1ccc(CCCCO)cc1 | 78.5 | – | –
Cc1cccc(C)c1NC(=O)C1CCCCN1C (centres undefined) | 150 | – | –
Nc1c(F)c(F)c(C(F)(F)F)c(F)c1F | – | 186 | –

SMILES | melting point [°C] | boiling point [°C] | also measured
CCCCCCCCCCCCSCCC(=O)OCC(COC(=O)CCSCCCCCCCCCCCC)(COC(=O)CCSCCCCCCCCCCCC)COC(=O)CCSCCCCCCCCCCCC | – | – | ready biodegradability: not readily biodegradable
O=C(O)C=Cc1ccc(Br)cc1 | 263 | – | –
CCC(C)C(C)(CC)CC (centres undefined) | – | 162 | –
C=C(C)OC | – | 35 | log10 vapour pressure (mmHg): 2.71
CCC(C)c1cc([N+](=O)[O-])cc([N+](=O)[O-])c1OC(C)=O (centres undefined) | 26 | – | log10 vapour pressure (mmHg): -3.22
CCOP(=S)(OCC)Oc1cnc2ccccc2n1 | 31.5 | – | log10 vapour pressure (mmHg): -5.58
O=c1ccc2cc3ccoc3cc2o1 | 164 | – | –
Cl.N=C(N)N | 182 | – | –
[N-]=[N+]=CC(=O)OC[C@H](N)C(=O)O | 154 | – | –
CN(C)CC#N | – | 138 | –
CCOc1ccccc1O | 29 | 217 | –
CC(=CC(C)(C)C)CC(C)(C)C | – | – | log10 biotransformation half-life (days): 0.7
CCCCc1cc2c(=O)c(C(=O)OC)c[nH]c2cc1OCc1ccccc1 | 288 | – | –
CC(C)(c1ccc(O)cc1)c1ccc(O)cc1 | 153 | – | ready biodegradability: not readily biodegradable; log10 BCF: 1.64; log10 biotransformation half-life (days): 0.27
CC(=O)NS(=O)(=O)c1ccc(N)cc1 | 183 | – | –
CN(C(O)=NC(C)(C)c1ccccc1)c1ccccc1 | 72 | – | –
CC(=O)c1cccc(Cl)c1 | – | 244 | –
Nc1c2c(nc3ccccc13)CCCC2 | 184 | – | –
CC[N+](CC)(CC(=O)Nc1c(C)cccc1C)Cc1ccccc1.O=C([O-])c1ccccc1 | 168 | – | –
C#CCCCCCC#C | -27.3 | 162 | –
O=[N+]([O-])c1ccc(F)cc1O | 36 | – | log10 Henry constant (atm·m³/mol): -4.71; log10 vapour pressure (mmHg): -1.64
NCc1cccnc1 | -21.1 | 226 | –
CCC(CC)C(C)(C)CC | – | 163 | –
ClC=C(Cl)C(Cl)Cl | – | 162 | –
CCCCCCCCCCCC(=O)O | 43.2 | 299 | log10 vapour pressure (mmHg): -4.8; log10 BCF: 2.4
CC(C)(Oc1ccc(Cl)cc1)C(=O)OCc1cccnc1 | 48.5 | – | –

SMILES | melting point [°C] | boiling point [°C] | also measured
CC(C)NCC(O)COc1ccc(CCOCC2CC2)cc1 (centres undefined) | 71 | – | –
Oc1ccc(-c2ccccc2)cc1 | 166 | 305 | ready biodegradability: not readily biodegradable; log10 BCF: 1.59; log10 biotransformation half-life (days): -0.81
CC(N)Cc1ccc(O)cc1 (centres undefined) | 126 | – | –
OCCCCO | 20.4 | 235 | log10 vapour pressure (mmHg): -1.98; ready biodegradability: readily biodegradable
O=C(O)CCCC(=O)O | – | 303 | log10 vapour pressure (mmHg): -5.54
COc1cc(Cl)c(Cl)cc1OC | 83 | – | –
NS(=O)(=O)c1ccc(S(=O)(=O)CCCO)cc1 | 150 | – | –
C[C@@H](N)C(=O)O | 292 | – | –
CCCCON=O | – | 78 | –
FC(F)(F)CS | – | 34.5 | –
CN(C)c1ccc(-c2ccc(N(C)C)cc2)cc1 | 194 | – | –
CCc1cccc(N)c1 | -64 | 214 | –
O=C(Cl)c1c(F)c(F)c(F)c(F)c1F | – | 158 | –
c1ccc2c(c1)ccc1ncccc12 | 94 | 352 | log10 Koc (L/kg): 4.64; log10 vapour pressure (mmHg): -4.25
CN(C)CN(C)C | – | 83 | –
C=CCOC(=O)c1ccccc1C(=O)OCC=C | – | – | ready biodegradability: readily biodegradable
O=C=Nc1ccc(-c2ccccc2)cc1 | 56 | 283 | –
O=C1c2c(O)cccc2Cc2cccc(O)c21 | 179 | – | –
COc1ccc(O)cc1 | 57 | 243 | ready biodegradability: readily biodegradable
C=CC(=O)OCC | -71.2 | 99.4 | log10 vapour pressure (mmHg): 1.59; ready biodegradability: readily biodegradable
CCC1(CC)C(=O)NC(=O)NC1=O | 190 | – | –
ClC1=C(Cl)C2(Cl)C(CBr)CC1(Cl)C2(Cl)Cl (centres undefined) | 77 | – | –
FCC(F)(F)F | -101 | -26 | log10 Henry constant (atm·m³/mol): -1.3; log10 vapour pressure (mmHg): 3.7
CCCCCCCc1ccccc1 | -48 | 240 | log10 vapour pressure (mmHg): -1.51
Fc1ccccc1F | -34 | 94 | log10 vapour pressure (mmHg): 1.73; ready biodegradability: not readily biodegradable
O=S1(=O)CCN(CN2CCS(=O)(=O)NC2)CN1 | 156 | – | –

SMILES | melting point [°C] | boiling point [°C] | also measured
C=C/C=C\CC1=C(C)[C@@H](OC(=O)[C@@H]2[C@@H](C=C(C)C)C2(C)C)CC1=O | – | – | log10 vapour pressure (mmHg): -4.69
CC(=O)COC(C)=O | – | 171 | –
CCCCCCCCCCCCCCCCCCC#N | – | – | ready biodegradability: readily biodegradable
COc1ccc(CCNCC(O)COc2cccc(C)c2)cc1OC (centres undefined) | 138 | – | –
CCCC(C1CCCCC1)C1CCCCC1 | -10.5 | 293 | –
CC(=O)c1c(C)c[nH]c1C | 138 | – | –
c1cc2c3c(ccc4c3c1CCC4)CCC2 | 133 | – | log10 biotransformation half-life (days): 0.42
C[C@]12CC[C@H]3[C@@H](CCC4=CC(=O)CC[C@@]43C)[C@@H]1CC[C@@H]2C(=O)CO | 142 | – | –
O=C(c1ccccc1)C1CCCCC1 | 56 | – | –
CC1CCCC(C)(C)C1=O (centres undefined) | -31.8 | 178 | –
FC(F)(F)C(Cl)(Cl)Cl | 14.2 | 46.1 | log10 vapour pressure (mmHg): 2.56
FC(F)(Br)C(F)(F)C(F)(F)C(F)(F)C(F)(F)C(F)(F)C(F)(F)Br | – | 159 | –
Brc1ccc(Br)s1 | -6 | 210 | –
Clc1c(Cl)c(Cl)c2c(oc3ccccc32)c1Cl | 169 | – | –
CCCCCCCC(N)=O | 108 | 239 | –
C/C=C(/C(=C/C)c1ccc(O)cc1)c1ccc(O)cc1 | 228 | – | –
CCCCC(=O)OCC(C)C | – | 179 | –
CCCCOC(=O)C(C)C | – | 155 | –
CNC(=O)ON=C(C)C(C)SC (centres undefined) | 25 | – | log10 vapour pressure (mmHg): -4.1
OCCCBr | – | – | log10 vapour pressure (mmHg): -1
O=C(O)CCCl | 41 | 156 | –
ClCc1ccccc1Cl | -17 | 217 | ready biodegradability: not readily biodegradable
CC1=C(O)C(=O)C(C(C)C)CC1 (centres undefined) | 83 | – | –
c1ccc(-c2ccc(-c3ccccc3)cc2)cc1 | 210 | 376 | log10 vapour pressure (mmHg): -7; ready biodegradability: not readily biodegradable
CC(C)C1=CC[C@H](C)CC1 | – | 168 | –
CN[C@@H](C)Cc1ccccc1.Cl | 172 | – | –

SMILES | melting point [°C] | boiling point [°C] | also measured
COC(=O)c1cccc(Cl)c1 | 21 | – | –
CN(C)CCN | – | 105 | ready biodegradability: not readily biodegradable
O=[N+]([O-])c1ccc(I)cc1 | 175 | 288 | –
O=Cc1ccccc1C=O | 56.5 | – | –
C[Si](C)(C)CCCCl | – | 151 | –
CCCC(=O)[O-].[Na+] | 251 | – | –
CCC(O)c1ccccc1 (centres undefined) | – | 219 | –
C=CCC(=O)O | -35 | 169 | –
CC(C)CS | – | 88.5 | log10 vapour pressure (mmHg): 1.84
CCOCC1CO1 (centres undefined) | – | 128 | –
COC(=O)[C@@H](C)N(C(=O)c1ccccc1)c1ccc(F)c(Cl)c1 | – | – | log10 vapour pressure (mmHg): -5.12
CCCOC/C(=N\c1ccc(Cl)cc1C(F)(F)F)n1ccnc1 | 63.5 | – | log10 vapour pressure (mmHg): -5.85
Cc1cnc(C)c(C)n1 | – | 172 | –
O=S(=O)(Cl)c1ccc(Br)cc1 | 76 | – | –
O=C1c2ccccc2C(=O)C1C(=O)C(c1ccccc1)c1ccc(Cl)cc1 (centres undefined) | 140 | – | log10 vapour pressure (mmHg): -9.12
Nc1ccc(S(=O)(=O)F)cc1 | 68.5 | – | –
Nc1ccc(Cl)c(C(=O)O)c1 | 188 | – | –
CCC(C(C)C)C(C)C | -122 | 137 | log10 vapour pressure (mmHg): 1
CC(C)(c1ccccc1)c1ccc(Nc2ccc(C(C)(C)c3ccccc3)cc2)cc1 | – | – | ready biodegradability: not readily biodegradable
O=C(O)c1ccc([N+](=O)[O-])c(O)c1 | 230 | – | –
N#CC1(N=NC2(C#N)CCCCC2)CCCCC1 | 116 | – | –
OCC1CCCO1 (centres undefined) | – | 178 | log10 vapour pressure (mmHg): -0.0964; ready biodegradability: readily biodegradable
Nc1ccc(S)cc1 | 46 | – | –
CCCCC(=O)OC | – | 127 | log10 Henry constant (atm·m³/mol): -3.5; log10 vapour pressure (mmHg): 1.28
